Reference: patent publication US9359352B2, “Substituted benzimidazoles as PI3 kinase inhibitors” (Intellikine LLC, priority 2010, dated 2016)

Experiments:
Assay type in all cases: biochemical
PI3K δ = target: T1, PI3K δ (Homo sapiens, UniProt O00329); test: PI 3-Kinase HTRF inhibition assay, PI3K δ; details: in vitro; read-out: PI3K δ IC50
T1 construct: purchased Upstate
Protocol: (§1) Commercial kits or systems for assaying PI3-K activities are available. The commercially available kits or systems can be used to screen for inhibitors and/or agonists of PI3-Ks including but not limited to PI 3-Kinase α, β, δ, and γ. An exemplary system is PI 3-Kinase (human) HTRF™ Assay from Upstate. […] Briefly, the assay is a time resolved FRET assay that indirectly measures PIP3 product formed by the activity of a PI3-K. The kinase reaction is performed in a microtitre plate (e.g., a 384 well microtitre plate). The total reaction volume is approximately 20 ul per well. In the first step, each well receives 2 ul of test compound in 20% dimethylsulphoxide resulting in a 2% DMSO final concentration. Next, approximately 14.5 ul of a kinase/PIP2 mixture (diluted in 1× reaction buffer) is added per well for a final concentration of 0.25-0.3 ug/ml kinase and 10 μM PIP2. The plate is scaled and incubated for 15 minutes at room temperature. To start the reaction, 3.5 ul of ATP (diluted in 1× reaction buffer) is added per well for a final concentration of 10 μM ATP. The plate is sealed and incubated for 1 hour at room temperature. The reaction is stopped by adding 5 ul of Stop Solution per well and then 5 ul of Detection Mix is added per well. The plate is sealed, incubated for 1 hour at room temperature, and then read on an appropriate plate reader. Data is analyzed and IC50s are generated using GraphPad Prism 5. For PI3K α, β, δ, and γ, the nM concentration of inhibitor to reach IC50 is provided. […] Similar assays, and others known in the art, can be used to measure the percent inhibition of other kinases, including but not limited to PI3K class II kinases, phosphoinositide 4 kinases (PI4K), and phosphoinositide 5 kinases (PI5K).

PI3K β = target: T2, PI3K β (Homo sapiens, UniProt P42338); test: PI 3-Kinase HTRF inhibition assay, PI3K β; details: in vitro
T2 construct: purchased Upstate
Protocol: as §1

PI3K α = target: T3, PI3K α (Homo sapiens, UniProt P42336); test: PI 3-Kinase HTRF inhibition assay, PI3K α; details: in vitro; read-out: PI3K α IC50
T3 construct: purchased Upstate
Protocol: as §1

PI3K γ = target: T4, PI3K γ (Homo sapiens, UniProt P48736); test: PI 3-Kinase HTRF inhibition assay, PI3K γ; details: in vitro
T4 construct: purchased Upstate
T4 sequence (P48736 whole entry): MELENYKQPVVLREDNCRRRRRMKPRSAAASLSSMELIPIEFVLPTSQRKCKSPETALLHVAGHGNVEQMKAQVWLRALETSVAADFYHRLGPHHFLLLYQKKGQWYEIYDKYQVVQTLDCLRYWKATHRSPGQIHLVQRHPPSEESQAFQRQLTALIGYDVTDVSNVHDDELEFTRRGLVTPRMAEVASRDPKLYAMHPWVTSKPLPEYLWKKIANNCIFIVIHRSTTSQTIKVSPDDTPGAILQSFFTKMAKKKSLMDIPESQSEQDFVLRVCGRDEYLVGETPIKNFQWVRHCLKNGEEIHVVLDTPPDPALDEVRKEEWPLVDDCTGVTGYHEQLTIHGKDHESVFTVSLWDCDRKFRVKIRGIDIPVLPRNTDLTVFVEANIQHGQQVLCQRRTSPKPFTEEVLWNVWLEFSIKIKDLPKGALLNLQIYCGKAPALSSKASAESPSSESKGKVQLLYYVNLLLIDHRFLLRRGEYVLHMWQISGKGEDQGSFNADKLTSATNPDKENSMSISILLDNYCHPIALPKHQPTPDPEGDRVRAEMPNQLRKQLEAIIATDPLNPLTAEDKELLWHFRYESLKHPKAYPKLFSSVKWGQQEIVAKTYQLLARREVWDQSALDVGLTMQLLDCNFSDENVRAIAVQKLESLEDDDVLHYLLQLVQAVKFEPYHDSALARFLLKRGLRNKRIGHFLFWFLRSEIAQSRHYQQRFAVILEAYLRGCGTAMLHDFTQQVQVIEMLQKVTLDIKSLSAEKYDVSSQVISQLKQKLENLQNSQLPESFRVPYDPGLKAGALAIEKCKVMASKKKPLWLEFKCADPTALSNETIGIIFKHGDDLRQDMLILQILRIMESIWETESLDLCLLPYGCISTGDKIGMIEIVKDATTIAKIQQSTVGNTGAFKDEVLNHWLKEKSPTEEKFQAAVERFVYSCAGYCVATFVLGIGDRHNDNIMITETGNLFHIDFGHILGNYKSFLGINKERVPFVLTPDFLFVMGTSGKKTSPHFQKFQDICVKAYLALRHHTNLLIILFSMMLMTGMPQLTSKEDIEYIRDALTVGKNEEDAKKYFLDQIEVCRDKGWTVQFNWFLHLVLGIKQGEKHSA

T1 sequence (O00329 whole entry): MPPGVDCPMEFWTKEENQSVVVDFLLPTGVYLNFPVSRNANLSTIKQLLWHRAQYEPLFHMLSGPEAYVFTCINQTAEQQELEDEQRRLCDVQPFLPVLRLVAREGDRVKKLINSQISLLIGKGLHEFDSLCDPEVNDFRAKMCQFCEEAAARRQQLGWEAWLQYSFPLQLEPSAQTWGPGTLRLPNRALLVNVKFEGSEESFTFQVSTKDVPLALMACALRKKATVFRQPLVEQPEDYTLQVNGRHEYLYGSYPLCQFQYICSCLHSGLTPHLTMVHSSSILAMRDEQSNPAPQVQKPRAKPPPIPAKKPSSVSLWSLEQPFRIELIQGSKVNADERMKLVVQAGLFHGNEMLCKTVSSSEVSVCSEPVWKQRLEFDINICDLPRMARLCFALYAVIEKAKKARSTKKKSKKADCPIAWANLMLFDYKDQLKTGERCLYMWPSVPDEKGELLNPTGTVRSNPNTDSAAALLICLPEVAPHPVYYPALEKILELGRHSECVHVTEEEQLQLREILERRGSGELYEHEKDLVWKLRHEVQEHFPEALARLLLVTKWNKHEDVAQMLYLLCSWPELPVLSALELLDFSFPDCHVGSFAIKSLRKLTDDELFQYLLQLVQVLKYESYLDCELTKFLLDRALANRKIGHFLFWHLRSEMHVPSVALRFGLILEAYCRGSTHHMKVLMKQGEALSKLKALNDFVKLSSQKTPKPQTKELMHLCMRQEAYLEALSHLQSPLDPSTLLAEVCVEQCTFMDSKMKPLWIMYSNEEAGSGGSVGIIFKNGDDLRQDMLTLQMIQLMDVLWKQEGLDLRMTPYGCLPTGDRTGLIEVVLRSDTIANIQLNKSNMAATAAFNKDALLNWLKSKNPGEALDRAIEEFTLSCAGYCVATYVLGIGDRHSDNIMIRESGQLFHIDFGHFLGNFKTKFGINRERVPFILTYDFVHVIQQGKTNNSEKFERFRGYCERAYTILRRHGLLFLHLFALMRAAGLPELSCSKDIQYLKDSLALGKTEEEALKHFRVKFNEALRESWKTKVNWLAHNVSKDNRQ
T1 sequence (P27986 whole entry partner): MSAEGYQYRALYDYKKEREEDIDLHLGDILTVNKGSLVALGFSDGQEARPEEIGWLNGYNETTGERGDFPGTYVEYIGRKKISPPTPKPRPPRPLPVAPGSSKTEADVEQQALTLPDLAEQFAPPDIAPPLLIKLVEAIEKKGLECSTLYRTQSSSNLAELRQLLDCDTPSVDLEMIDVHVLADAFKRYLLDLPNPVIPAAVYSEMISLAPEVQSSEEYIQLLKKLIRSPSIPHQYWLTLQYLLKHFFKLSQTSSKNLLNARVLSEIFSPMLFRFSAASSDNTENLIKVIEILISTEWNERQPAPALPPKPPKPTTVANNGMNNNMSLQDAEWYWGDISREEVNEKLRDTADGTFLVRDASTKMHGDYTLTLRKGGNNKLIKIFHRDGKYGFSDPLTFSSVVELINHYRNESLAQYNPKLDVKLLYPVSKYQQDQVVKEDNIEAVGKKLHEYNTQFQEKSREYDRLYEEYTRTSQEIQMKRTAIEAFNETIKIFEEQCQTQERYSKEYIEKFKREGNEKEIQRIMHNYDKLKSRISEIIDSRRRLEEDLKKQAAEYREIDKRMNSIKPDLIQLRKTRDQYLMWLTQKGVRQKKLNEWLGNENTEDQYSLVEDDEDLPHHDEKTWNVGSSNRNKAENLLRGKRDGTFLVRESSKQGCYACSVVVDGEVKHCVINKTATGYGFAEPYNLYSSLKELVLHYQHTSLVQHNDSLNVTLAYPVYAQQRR
T2 sequence (P42338 whole entry): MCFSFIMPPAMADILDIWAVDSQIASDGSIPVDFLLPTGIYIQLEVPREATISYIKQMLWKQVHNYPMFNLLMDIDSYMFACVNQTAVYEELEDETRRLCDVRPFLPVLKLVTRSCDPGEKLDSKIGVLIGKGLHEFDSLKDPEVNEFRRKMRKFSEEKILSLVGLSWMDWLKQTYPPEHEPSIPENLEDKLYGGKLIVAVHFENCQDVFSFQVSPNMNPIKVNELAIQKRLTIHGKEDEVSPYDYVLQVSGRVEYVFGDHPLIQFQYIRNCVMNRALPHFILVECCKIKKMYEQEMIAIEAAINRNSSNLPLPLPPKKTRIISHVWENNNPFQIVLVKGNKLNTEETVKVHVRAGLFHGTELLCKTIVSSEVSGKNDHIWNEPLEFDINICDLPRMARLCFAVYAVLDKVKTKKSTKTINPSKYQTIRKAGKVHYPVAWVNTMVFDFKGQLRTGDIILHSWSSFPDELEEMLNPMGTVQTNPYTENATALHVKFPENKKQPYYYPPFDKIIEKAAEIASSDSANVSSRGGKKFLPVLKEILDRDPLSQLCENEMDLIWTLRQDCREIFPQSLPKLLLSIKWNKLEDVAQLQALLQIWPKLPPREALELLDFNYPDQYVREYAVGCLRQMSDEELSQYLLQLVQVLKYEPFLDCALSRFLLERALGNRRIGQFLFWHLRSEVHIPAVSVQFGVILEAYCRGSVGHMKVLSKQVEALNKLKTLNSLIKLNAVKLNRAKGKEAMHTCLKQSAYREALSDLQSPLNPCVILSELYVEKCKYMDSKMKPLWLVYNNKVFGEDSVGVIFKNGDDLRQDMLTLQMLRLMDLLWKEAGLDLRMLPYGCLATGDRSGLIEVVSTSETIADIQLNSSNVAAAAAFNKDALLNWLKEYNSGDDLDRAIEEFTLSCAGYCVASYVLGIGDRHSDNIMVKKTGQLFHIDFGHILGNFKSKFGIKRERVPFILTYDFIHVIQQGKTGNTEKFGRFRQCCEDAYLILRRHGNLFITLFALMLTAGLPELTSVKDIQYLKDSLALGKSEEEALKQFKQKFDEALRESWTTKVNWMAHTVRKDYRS
T2 sequence (P27986 whole entry partner): as the sequence (P27986 whole entry partner) above
T3 sequence (P42336 whole entry): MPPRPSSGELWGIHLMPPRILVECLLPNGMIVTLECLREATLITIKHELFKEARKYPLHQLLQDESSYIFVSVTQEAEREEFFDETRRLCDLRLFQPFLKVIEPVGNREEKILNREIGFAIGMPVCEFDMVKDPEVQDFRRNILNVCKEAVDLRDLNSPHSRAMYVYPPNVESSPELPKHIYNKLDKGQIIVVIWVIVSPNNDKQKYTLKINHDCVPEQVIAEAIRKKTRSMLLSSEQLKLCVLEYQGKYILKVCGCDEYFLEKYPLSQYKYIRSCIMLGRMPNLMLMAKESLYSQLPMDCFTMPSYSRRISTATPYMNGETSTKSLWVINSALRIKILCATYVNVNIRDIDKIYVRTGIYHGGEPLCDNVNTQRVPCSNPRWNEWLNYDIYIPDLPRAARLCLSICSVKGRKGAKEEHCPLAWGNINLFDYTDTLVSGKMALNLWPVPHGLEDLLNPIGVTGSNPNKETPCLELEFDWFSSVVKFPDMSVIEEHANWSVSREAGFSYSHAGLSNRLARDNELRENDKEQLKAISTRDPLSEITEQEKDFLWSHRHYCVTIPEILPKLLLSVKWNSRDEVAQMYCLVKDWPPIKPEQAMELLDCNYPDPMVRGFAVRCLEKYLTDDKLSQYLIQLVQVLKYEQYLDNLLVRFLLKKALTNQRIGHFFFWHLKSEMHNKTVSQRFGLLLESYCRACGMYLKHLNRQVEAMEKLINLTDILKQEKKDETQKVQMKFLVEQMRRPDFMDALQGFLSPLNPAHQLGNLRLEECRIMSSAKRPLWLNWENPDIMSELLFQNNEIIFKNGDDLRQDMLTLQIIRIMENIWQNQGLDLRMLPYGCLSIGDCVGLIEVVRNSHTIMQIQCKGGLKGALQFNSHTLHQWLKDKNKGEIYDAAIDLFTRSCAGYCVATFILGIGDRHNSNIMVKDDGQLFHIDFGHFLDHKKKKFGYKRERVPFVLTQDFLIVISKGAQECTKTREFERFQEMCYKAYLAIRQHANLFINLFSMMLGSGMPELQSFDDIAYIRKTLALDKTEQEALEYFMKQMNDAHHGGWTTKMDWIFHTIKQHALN
T3 sequence (P27986 whole entry partner): as the sequence (P27986 whole entry partner) above

Structure (SMILES) | IC50 (PI3K δ) | IC50 (PI3K β) | IC50 (PI3K α) | IC50 (PI3K γ)
Nc1nc2cc(-c3ccc4ncc(N5CC(N6CCN(CC7CC7)CC6)C5)nc4n3)ccc2o1 [Compound 35] | < 10000 nM | < 10000 nM | < 100 nM | < 10000 nM
CCOC(=O)N1CCN(c2cnc3ccc(-c4ccc5oc(N)nc5c4)nc3c2)CC1 [Compound 36] | > 10000 nM | < 10000 nM | < 100 nM | < 100 nM
NCC(=O)N1CCN(c2cnc3ccc(-c4ccc5oc(N)nc5c4)nc3c2)CC1 [Compound 37] | < 1000 nM | < 1000 nM | < 100 nM | < 1000 nM
C[C@H](N)C(=O)N1CCN(c2cnc3ccc(-c4ccc5oc(N)nc5c4)nc3c2)CC1 [Compound 38] | < 1000 nM | < 1000 nM | < 100 nM | < 1000 nM
C[C@@H](N)C(=O)N1CCN(c2cnc3ccc(-c4ccc5oc(N)nc5c4)nc3c2)CC1 [Compound 39] | < 1000 nM | < 100 nM | < 100 nM | < 1000 nM
CC(C)(N)C(=O)N1CCN(c2cnc3ccc(-c4ccc5oc(N)nc5c4)nc3n2)CC1 [Compound 40] | < 10000 nM | < 10000 nM | < 100 nM | < 10000 nM
Nc1nc2cc(-c3ccc4ncc(N5CCN(C(=O)C6(N)CC6)CC5)cc4n3)ccc2o1 [Compound 42] | < 1000 nM | < 1000 nM | < 100 nM | < 100 nM
CC(C)N1CCN(c2cnc3ccc(-c4ccc5oc(N)nc5c4)nc3c2)CC1 [Compound 44] | < 1000 nM | < 1000 nM | < 100 nM | < 1000 nM
Nc1nc2cc(-c3ccc4ncc(N5CCC(O)CC5)nc4n3)ccc2o1 [Compound 45] | > 10000 nM | < 10000 nM | < 100 nM | < 100 nM
Nc1nc2cc(-c3ccc4ncc(N5CC(N6CCN(CCO)CC6)C5)nc4n3)ccc2o1 [Compound 46] | < 10000 nM | < 10000 nM | < 100 nM | < 10000 nM
C[C@H]1CN(c2cnc3ccc(-c4ccc5oc(N)nc5c4)nc3c2)CCN1 [Compound 47] | < 10000 nM | < 100 nM | < 100 nM | < 1000 nM
C[C@@H]1CN(c2cnc3ccc(-c4ccc5oc(N)nc5c4)nc3c2)CCN1 [Compound 48] | < 10000 nM | < 1000 nM | < 100 nM | < 10000 nM
C[C@@H]1COCCN1C1CN(c2cnc3ccc(-c4ccc5oc(N)nc5c4)nc3n2)C1 [Compound 49] | > 10000 nM | > 10000 nM | < 10000 nM | < 10000 nM
Cc1nccn1C1CN(c2cnc3ccc(-c4ccc5oc(N)nc5c4)nc3n2)C1 [Compound 50] | < 10000 nM | < 10000 nM | < 100 nM | < 10000 nM
Nc1nc2cc(-c3ccc4ncc(N5CC(N6C7CCC6COC7)C5)nc4n3)ccc2o1 [Compound 51] | > 10000 nM | > 10000 nM | < 10000 nM | > 10000 nM
CC1(C)CN(C2CN(c3cnc4ccc(-c5ccc6oc(N)nc6c5)nc4n3)C2)CCN1 [Compound 52] | < 1000 nM | < 10000 nM | < 100 nM | < 10000 nM
Nc1nc2cc(-c3ccc4ncc(N5CC(N6CCOCC6)C5)cc4n3)ccc2o1 [Compound 53] | < 10000 nM | < 10000 nM | < 100 nM | < 1000 nM
C[C@H]1CN(C2CN(c3cnc4ccc(-c5ccc6oc(N)nc6c5)nc4c3)C2)CCN1 [Compound 54] | < 1000 nM | < 10000 nM | < 100 nM | < 10000 nM
C[C@H]1CN(C2CN(c3cnc4ccc(-c5ccc6oc(N)nc6c5)nc4c3)C2)CCN1C [Compound 55] | < 1000 nM | < 10000 nM | < 100 nM | < 10000 nM
C[C@@H]1CN(C2CN(c3cnc4ccc(-c5ccc6oc(N)nc6c5)nc4c3)C2)CCN1 [Compound 56] | < 1000 nM | < 10000 nM | < 100 nM | < 1000 nM
C[C@@H]1CN(C2CN(c3cnc4ccc(-c5ccc6oc(N)nc6c5)nc4c3)C2)CCN1C [Compound 57] | < 1000 nM | < 10000 nM | < 100 nM | < 10000 nM
